In patent US12433911B2, “Preparation and storage of liposomal RNA formulations suitable for therapy” (BIONTECH SE, priority 2019, dated 2025):
Like-named read-outs stand apart in the source and are kept apart here. Each block holds one compound with its values, some of them ahead of it.

Assays:
[1] = RNA integrity of RNA lipoplexes under stress conditions (40° C.), capillary electrophoresis; details: 21 days, absence of cryoprotectant, by buffering system
Method: RNA lipoplexes are initially incubated under stress conditions (40° C.) in the absence of cryoprotectant. RNA integrity was analyzed by capillary electrophoresis over 21 days. In order to investigate the optimum pH range in the presence of an exemplary cryoprotectant, RNA lipoplexes were incubated in the presence of HEPES and sucrose at 40° C. and RNA integrity was analyzed for 21 days.
RNA integrity was analyzed as a key physicochemical parameter over 21 days.

[2] = Method: The samples were frozen at −30° C. and then transferred to the respective temperature for long-term storage (either −15 or −30° C.). After defined storage time, samples were analyzed and preservation of the colloidal stability was analyzed by measuring the particle size using PCS. These experiments were performed at a total RNA concentration of 0.05 mg/mL.
Method: To investigate the minimum content of representative cryoprotectants as sucrose, trehalose, glucose and mixtures including dextran required for long-term storage at −20° C., RNA lipoplexes were frozen at a fixed cryoprotectant content in combination with varying NaCl concentrations. For monomeric or dimeric molecular cryoprotectants as glucose, sucrose, and trehalose a concentration of 22% (w/v) was adjusted. These formulations were frozen and stored at −15 to −40° C. and long-term stability was investigated by measuring the particle size using PCS after defined storage time.
The samples were frozen and stored at −20° C. After defined storage time, samples were analyzed and preservation of the colloidal stability was analyzed by measuring the particle size.

[3] = Freezing of RNA lipoplexes with cryoprotectants and NaCl, particle size; format: physicochemical; details: for preservation of particle size: single freezing step, 0 to 60 mM NaCl, 20% (w/v) cryoprotectant
From the text: Methods: Different compounds representative for monosaccharides (glucose and sorbitol), disaccharides (sucrose and trehalose), amino acids (arginine, prolin), triols (glycerin) as well as cryoprotectant systems containing mixtures of different sugars (mannitol and sucrose) were investigated in order to identify suited cryoprotectants (FIGS. 25 and 26). Therefore RNA lipoplexes were frozen in the presence of increasing concentration of these compounds. In order to identify minimum content of cryoprotectant at a certain concentration of NaCl, RNA lipoplexes were frozen in the presence of increasing amounts of sucrose or trehalose as representative cryoprotectants (Table 7). The samples were initially frozen a single time in order to determine the concentration range of cryoprotectant to be investigated in detail. In a third experiment, the efficacy of stabilization of the particle size was challenged by freezing of the RNA lipoplexes up to 10 times in the presence of the cryoprotectant trehalose (Table 8).

[4] = Buffer, pH, NaCl and sucrose stability studies at +25° C. and −15° C. (PCS, pH, capillary electrophoresis); details: for stability of the RNA in RNA lipoplexes: Example 2.1, accelerated conditions (25°); for preservation of the particle size and the polydispersity: Example 2.1, frozen state (−15° C.)
Method: RNA lipoplexes are incubated under accelerated conditions (25° C.) in the presence of an exemplarily cryoprotectant. RNA integrity was analyzed by capillary electrophoresis over 60 days. Additionally, RNA lipoplexes are incubated under at the anticipated storage conditions (−15° C.) in the presence of an exemplarily cryoprotectant for up to two years. RNA integrity was analyzed by capillary electrophoresis.
The respective RNA lipoplexes were investigated under accelerated conditions (25° C.) and in the frozen state (−15° C.).
RNA lipoplexes were formed with liposomes containing 2 mM of acetic acid. The respective RNA lipoplexes were investigated under accelerated conditions (25° C.) and in the frozen state (−15° C.).
Method: All RNA lipoplexes were automatically prepared in a single batch and the different concentrations of HEPES were adjusted by the addition of a cryoprotectant solution containing different amounts of HEPES. Particle sizes and polydispersity of RNA lipolexes were analyzed by photon correlation spectroscopy (PCS) measurements. Additionally, the RNA integrity was analyzed by capillary electrophoresis and the pH was measured.
In the following study, the concentration of HEPES which is required for stabilization of the pH of the RNA lipoplexes was investigated. RNA lipoplexes were formed with liposomes containing 5 mM of acetic acid and different concentrations of HEPES were adjusted by using different cryoprotectant solutions and the respective RNA lipoplexes were investigated under accelerated conditions (25° C.). The pH range from pH 6.2 to 7.2 was tested.
Methods: As a representative cryoprotectant, sucrose was investigated at a concentration of 10% (w/v). A detailed description of the experiments is given in section 2.
In the following study, the long-term stability of RNA lipoplexes in the frozen state was investigated with the combination of the reduced concentration of NaCl and Sucrose in the presence of either HEPES or Histidine as a buffering agent at a pH of 6.5.

[5] = DOPE and DOPE/DOTMA solubility in ethanol (HPLC); format: physicochemical; details: for DOPE solubility in ethanol comprising 220 mM DOTMA, mM after Filtration: DOTMA/DOPE 66:33 in ethanol abs.
Method: DOPE and DOPE/DOTMA solubility in ethanol was investigated by preparing 300 mM DOPE or 330 mM DOPE/DOTMA (66:33) solutions in ethanol. The lipids were dissolved by incubating the lipid solutions at 37° C. for 20 minutes. The DOPE solutions were centrifuged at 17000 G for 1 h and the DOPE concentration was measured in the supernatant by HPLC. The DOTMA/DOPE solutions were filtered through a 0.22 μm PES syringe filter and the lipid concentration was measured in the filtrate by HPLC.
Lipid concentration in the different liposome formulations were measured by HPLC (Agilent technologies. Santa Clara. USA) using a Sunfire C18 2.5 μm 4.6×75 mm column (Waters, Massachusetts USA) and a wave length of 205 nm. Mobile phase A was a mixture of 70% methanol/30% isopropanol/0.1% TFA, mobile phase B was a mixture of 55% methanol/15% isopropanol/30% water/0.1% TFA. Liposomes samples were or not diluted with water to 3 mM total lipid concentration.
It has been tested if DOPE-containing solutions of higher concentration can be prepared (in the supersaturated state) and used for ethanol injection for liposome manufacturing (next section).

[6] = 70 mM NaCl, up to 10 times freezing
[7] = Example 2.2, accelerated conditions (25° C.)
[8] = Example 2.2, frozen state (−15° C.)
[9] = compound tested as cryoprotectant

SMILES: O=C([O-])[O-].[Na+].[Na+] [carbonate, sodium carbonate]
stabilization of the RNA (RNA integrity) [1]: did not result in comparable stabilization of the RNA

stabilization efficacy between cryoprotectants [2]: No difference | trehalose sufficient for stabilization of particle characteristics ([3]; 50 mM NaCl, even after 10 times freezing): ≥ 12.5% | trehalose required for exact preservation of the particle size [3, 6]: ≥ 22.5% | trehalose required for minimum stabilization [3, 6]: ≥ 12.5% | exact preservation of the particle size ([3]; 90 mM NaCl, highest investigated concentration 27.5%): could not be achieved | trehalose required for minimum stabilization ([3]; 90 mM NaCl, up to 10 times freezing): ≥ 15.0% | preservation of particle size [3]: acceptable preservation of particle size
SMILES: OC[C@H]1O[C@H](O[C@H]2O[C@H](CO)[C@@H](O)[C@H](O)[C@H]2O)[C@H](O)[C@@H](O)[C@@H]1O [trehalose]

HEPES concentration sufficient for stabilization of the adjusted pH ([4]; 25° C.): ≥ 2.5 mM | stability of the RNA in RNA lipoplexes [4]: best stability | preservation of the particle size and the polydispersity [4]: equally suited | RNA integrity ([4]; Example 4.1, accelerated +25° C., vs current formulation 20 mM NaCl and 22% sucrose): better preserved
SMILES: O=S(=O)(O)CCN1CCN(CCO)CC1 [HEPES, 2-[4-(2-hydroxyethyl)piperazin-1-yl]ethanesulfonic acid]
stabilization of the RNA integrity [4, 7]: comparable stabilization of the RNA integrity | stabilization of the RNA integrity [4, 8]: comparable stabilization of the RNA integrity

stabilization of RNA lipoplexes during freezing [3]: can be used as cryoprotectants
SMILES: O=C(O)[C@@H]1CCCN1 [proline]

stability of the RNA in RNA lipoplexes [4]: lower stability | preservation of the particle size and the polydispersity [4]: equally suited | stabilization of the RNA integrity [4, 7]: slightly reduced stability
SMILES: N[C@@H](Cc1c[nH]cn1)C(=O)O [Histidine, histidine]
stabilization of the RNA integrity [4, 8]: comparable stabilization of the RNA integrity

stabilization efficacy between cryoprotectants [2]: No difference | preservation of particle size [3]: acceptable preservation of particle size
SMILES: OC[C@H]1O[C@@](CO)(O[C@H]2O[C@H](CO)[C@@H](O)[C@H](O)[C@H]2O)[C@@H](O)[C@@H]1O [sucrose]

stabilization of RNA lipoplexes during freezing [3, 9]: can be used as cryoprotectants | stabilization efficacy compared with the other cryoprotectants ([3]; freezing): lower
SMILES: OC[C@@H](O)[C@@H](O)[C@H](O)[C@@H](O)CO [sorbitol]

stabilization of RNA lipoplexes during freezing [3, 9]: clearly destabilizes the RNA lipoplexes
SMILES: N=C(N)NCCC[C@H](N)C(=O)O [arginine]

stabilization of RNA lipoplexes during freezing [3, 9]: can be used as cryoprotectants
SMILES: OCC(O)CO [Glycerin, glycerin]

SMILES: O=P(O)(O)O [sodium phosphate]
stabilization of the RNA (RNA integrity) [1]: comparable results

SMILES: O=S(=O)(O)CCN1CCOCC1 [MES, 2-(N-morpholino)ethanesulfonic acid]
stabilization of the RNA integrity [4]: comparable stabilization of the RNA integrity

DOPE solubility in ethanol comprising 220 mM DOTMA, mM after Filtration ([5]; Corden Pharma, F0624): 93 mM | DOPE solubility in ethanol comprising 220 mM DOTMA, mM after Filtration ([5]; Corden Pharma, W0650): 106 mM | DOPE solubility in ethanol comprising 220 mM DOTMA, mM after Filtration ([5]; Merck, MK2885-C): 94 mM | DOPE solubility in ethanol comprising 220 mM DOTMA, mM after Filtration ([5]; NOF, 14099612): 103 mM | DOPE solubility in ethanol ([5]; Provider Corden Pharma, Charge Nr. F0624): 56 mM | DOPE solubility in ethanol ([5]; Provider Corden Pharma, Charge Nr. W0650): 59 mM | DOPE solubility in ethanol ([5]; Provider Merck, Charge Nr. MK2885-C): 59 mM | DOPE solubility in ethanol ([5]; Provider NOF, Charge Nr. 14099612): 63 mM
SMILES: CCCCCCCC/C=C\CCCCCCCC(=O)OC[C@H](COP(=O)(O)OCCN)OC(=O)CCCCCCC/C=C\CCCCCCCC [DOPE, 1,2-di-(9Z-octadecenoyl)-sn-glycero-3-phosphoethanolamine]
